Measured values taken from patent US8173131B2, “Compositions and methods for modulating RSV infection and immunity” (PerkinElmer Health Sciences, Inc., priority 2000, dated 2012).
Read-outs that look alike come from different tables or passages of the source. Marks after values point to notes of the source that are not given here.

B1: G glycoprotein: purified G glycoprotein isolated from RSV/A2-infected Vero cells (protein)
chain: MSKNKDQRTAKTLERTWDTLNHLLFISSCLYKLNLKSVAQITLSILAMIISTSLIIAAIIFIASANHKVTPTTAIIQDATSQIKNTTPTYLTQNPQLGISPSNPSEITSQITTILASTTPGVKSTLQSTTVKTKNTTTTQTQPSKPTTKQRQNKPPSKPNNDFHFEVFNFVPCSICSNNPTCWAICKRIPNKKPGKKTTTKPTKKPTLKTTKKDPKPQTTKSKEVPTTKPTEEPTINTTKTNIITTLLTSNTTGNPELTSQMETFHSTSSEGNPSPSQVSTTSEYPSQPSSPPNTPRQ

Assays:
CD3+ BAL cells = assay: Intracellular cytokine expression by CD3+ T cells following in vivo peptide treatment; parameters: species or system BALB/c mice
Protocol: On day −1, prior to RSV infection, mice were i.p. treated (0.1 ml/mouse) with 100 μM of G glycoprotein peptides RT33 (CWAIC) (SEQ ID NO: 12), RT34 (lacks the CX3C motif) or peptides with changes in the CX3C motif (Δ+1, Δ−1, EYp1). Control mice were treated with PBS containing a similar dilution of DMSO used to solubilize the peptides.
Intracellular cytokine staining was modified for microculture staining as described (55, 57). Briefly, BAL cells were incubated in PBS containing Golgi Stop (Pharmingen) for 3 h at 37° C. to allow for accumulation of intracellular cytokines. The cells were washed in PBS containing 1% bovine serum albumin, blocked with 10% normal mouse sera diluted in PBS containing 1% bovine serum albumin, and stained (4° C., 30 min) with an appropriate dilution of anti-CD3 antibody, fixed and permeabilized in Cytofix/Cytoperm (Pharmingen). The cells were washed in Cytofix/Cytoperm buffer and stained (4° C., 30 min) with appropriate dilutions of anti-IL-2 (JES6-5H4), anti-IL-4 (BVD4-1D11), anti-IL-5 (TRFK5), IL-10 (JES3-16E3), anti-IFNγ (XMG1.2), or anti-TNFα (MP6-XT22) antibodies (Pharmingen) diluted in Cytofix/Cytoperm. Extra- and intracellular staining was analyzed by flow cytometry using a FACScan and Cell Quest software (Becton Dickinson, San Diego, Calif.). Total cytokine expression by CD3+ T cells was determined from the percent cytokine expression of CD3+ T cells and total number of cells recovered. The total number of CD3+ BAL cells expressing a particular cytokine was determined by multiplying the total number of BAL cells by the percent CD3+ cells expressing that particular cytokine.

[1] = test system: murine spleen leukocyte cell migration; assay: Murine leukocyte chemotaxis in modified Boyden chamber; assay type: cell-based, mouse
Protocol: The chemotactic index was determined from the fold increase of murine spleen leukocyte cell migration toward the chemoattractant (e.g., Fkn or G glycoprotein) over the leukocyte migration toward media alone control, using modified Boyden chambers. Fkn, G glycoprotein, recombinant polyhistidine-tagged G glycoprotein (GHIS), anti-CX3CR1 monoclonal antibody (2A9-1), normal rabbit serum, rabbit anti-CX3CR1 serum, anti-G glycoprotein monoclonal antibody (131-2G) or anti-F glycoprotein monoclonal antibody (131-2A) were added to the upper chamber to examine antagonism of cell migration toward the chemoattractant in the lower chamber.
Leukocyte chemotaxis toward Fkn, G glycoprotein or media was measured according to Boyden^46 using 24 well plates (Costar, Cambridge, Mass.) with 3 μm filter inserts (Nalge Nunc, Rochester, N.Y.) coated with an extracellular matrix consisting primarily of laminin, collagen IV and proteoglycan (ECM, Sigma, St. Louis, Mo.). For murine studies, 5×10^5 naïve spleen cells was placed in the upper chamber and 10 nM mouse Fkn or 10 nM G glycoprotein, anti-CX3CR1 antibody, anti-G or anti-F glycoprotein monoclonal antibody, normal rabbit sera, rabbit anti-CCR5 sera or media was placed in the upper or lower chamber as appropriate. For human studies, 10^6 density gradient purified (Lymphocyte Separation Media, ICN Biomedicals, Aurora, Ohio, per manufacture instructions) peripheral blood mononuclear cells (PBMC) from normal human adult donors was placed in the upper chamber in the presence or absence of 1 μM peptide RT33, and 10 nM human Fkn, 10 nM G glycoprotein or 1 μM peptide RT33 placed in the lower chambers. The modified Boyden chamber was incubated at 37° C. for 4-6 h, the inserts removed, washed in PBS (GIBCO BRL), fixed in 3% gluteraldehyde and stained in formalin-buffered 0.01% crystal violet. Chemotactic cells were visualized with a microscope. Chemotactic cells were analyzed for CX3CR1 expression by collecting cells from the upper or lower modified Boyden chambers, antibody staining (2A9-1) and flow cytometry as described. Leucocytes chemotactic toward G or Fkn expressed a higher percent of CX3CR1 in the lower (25-30%) versus upper chamber (7-11%).

[2] = target: T1, Fkn binding to 293-CX3CR1 cells (Homo sapiens, UniProt P49238)
T1 construct: host or cells: HEK 293 cells stably transfected with CX3CR1
T1 sequence (P49238 whole entry): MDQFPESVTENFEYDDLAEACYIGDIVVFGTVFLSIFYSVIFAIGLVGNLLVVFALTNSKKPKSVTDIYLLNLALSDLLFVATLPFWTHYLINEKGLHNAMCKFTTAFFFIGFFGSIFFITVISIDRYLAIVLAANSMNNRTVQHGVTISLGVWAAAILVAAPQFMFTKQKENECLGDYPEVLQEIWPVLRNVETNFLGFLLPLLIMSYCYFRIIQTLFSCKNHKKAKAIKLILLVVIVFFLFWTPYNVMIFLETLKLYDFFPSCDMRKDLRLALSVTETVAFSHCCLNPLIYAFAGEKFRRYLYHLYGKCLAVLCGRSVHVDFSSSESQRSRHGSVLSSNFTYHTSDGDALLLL

[3] = day 3 pi, peptide 24 hours prior to RSV infection
[4] = substance added to upper chamber as antagonist

Molecule	Total IC cytokine Expressing CD3^+ BAL cells (×10^3) ± SEM: IFNγ (CD3+ BAL cells; day 3 pi)	Total IC cytokine Expressing CD3^+ BAL cells (×10^3) ± SEM: IL-4 (CD3+ BAL cells; day 3 pi)	Total IC cytokine Expressing CD3^+ BAL cells (×10^3) ± SEM: IL-5 (CD3+ BAL cells; day 3 pi)	Total IC cytokine Expressing CD3^+ BAL cells (×10^3) ± SEM: IL-6 (CD3+ BAL cells; day 3 pi)	Total IC cytokine Expressing CD3^+ BAL cells (×10^3) ± SEM: TNFα (CD3+ BAL cells; day 3 pi)	Total IC cytokine Expressing CD3^+ BAL cells (×10^3) ± SEM: IL-2 (CD3+ BAL cells; [3])	Total IC cytokine Expressing CD3^+ BAL cells (×10^3) ± SEM: IFNγ (CD3+ BAL cells; day 5 pi)	Total IC cytokine Expressing CD3^+ BAL cells (×10^3) ± SEM: IL-2 (CD3+ BAL cells; day 5 pi)	Total IC cytokine Expressing CD3^+ BAL cells (×10^3) ± SEM: IL-4 (CD3+ BAL cells; day 5 pi)	Total IC cytokine Expressing CD3^+ BAL cells (×10^3) ± SEM: IL-5 (CD3+ BAL cells; day 5 pi)	Total IC cytokine Expressing CD3^+ BAL cells (×10^3) ± SEM: IL-6 (CD3+ BAL cells; day 5 pi)	Total IC cytokine Expressing CD3^+ BAL cells (×10^3) ± SEM: TNFα (CD3+ BAL cells; day 5 pi)	Total IC cytokine Expressing CD3^+ BAL cells (×10^3) ± SEM: IFNγ (CD3+ BAL cells; day 7 pi)	Total IC cytokine Expressing CD3^+ BAL cells (×10^3) ± SEM: IL-2 (CD3+ BAL cells; day 7 pi)	Total IC cytokine Expressing CD3^+ BAL cells (×10^3) ± SEM: IL-4 (CD3+ BAL cells; day 7 pi)	Total IC cytokine Expressing CD3^+ BAL cells (×10^3) ± SEM: IL-5 (CD3+ BAL cells; day 7 pi)	Total IC cytokine Expressing CD3^+ BAL cells (×10^3) ± SEM: IL-6 (CD3+ BAL cells; day 7 pi)	Total IC cytokine Expressing CD3^+ BAL cells (×10^3) ± SEM: TNFα (CD3+ BAL cells; day 7 pi)	Total IC cytokine Expressing CD3^+ BAL cells (×10^3) ± SEM: IFNγ (CD3+ BAL cells; day 14 pi)	Total IC cytokine Expressing CD3^+ BAL cells (×10^3) ± SEM: IL-2 (CD3+ BAL cells; day 14 pi)	further results
TCWAIACKRIPNK [Δ + 1]	18 ± 2.2 ×10^3	18 ± 2.3 ×10^3	23 ± 2.9 ×10^3	21 ± 2.8 ×10^3	19 ± 2.5 ×10^3	15 ± 2.0 ×10^3	17 ± 5.3 ×10^3	16 ± 5.1 ×10^3	20 ± 6.2 ×10^3	23 ± 7.2 ×10^3	21 ± 6.5 ×10^3	21 ± 6.8 ×10^3	5.6 ± 1.6 ×10^3	7.5 ± 2.2 ×10^3	5.8 ± 1.7 ×10^3	9.9 ± 2.9 ×10^3	11 ± 3.3 ×10^3	15 ± 2.9 ×10^3	11 ± 3.5 ×10^3	10 ± 3.2 ×10^3	Total IC cytokine Expressing CD3^+ BAL cells (×10^3) ± SEM: IL-4 (CD3+ BAL cells; day 14 pi): 14 ± 4.2 ×10^3; Total IC cytokine Expressing CD3^+ BAL cells (×10^3) ± SEM: IL-5 (CD3+ BAL cells; day 14 pi): 16 ± 4.9 ×10^3; Total IC cytokine Expressing CD3^+ BAL cells (×10^3) ± SEM: IL-6 (CD3+ BAL cells; day 14 pi): 12 ± 3.7 ×10^3; Total IC cytokine Expressing CD3^+ BAL cells (×10^3) ± SEM: TNFα (CD3+ BAL cells; day 14 pi): 15 ± 4.7 ×10^3
TCWACKRIPNK (TCWAIACKRIPNK) [Δ − 1]	47 ± 15 ×10^3	47 ± 15 ×10^3	49 ± 16 ×10^3	51 ± 17 ×10^3	55 ± 17 ×10^3	46 ± 15 ×10^3	10 ± 1.6 ×10^3	11 ± 1.7 ×10^3	13 ± 1.9 ×10^3	15 ± 2.2 ×10^3	13 ± 2.0 ×10^3	18 ± 2.7 ×10^3	4.7 ± 0.7 ×10^3	3.5 ± 0.5 ×10^3	2.8 ± 0.4 ×10^3	4.2 ± 0.6 ×10^3	6.3 ± 1.0 ×10^3	12 ± 0.7 ×10^3	10 ± 1.2 ×10^3	8.7 ± 1.0 ×10^3	Total IC cytokine Expressing CD3^+ BAL cells (×10^3) ± SEM: IL-4 (CD3+ BAL cells; day 14 pi): 12 ± 1.4 ×10^3; Total IC cytokine Expressing CD3^+ BAL cells (×10^3) ± SEM: IL-5 (CD3+ BAL cells; day 14 pi): 14 ± 1.7 ×10^3; Total IC cytokine Expressing CD3^+ BAL cells (×10^3) ± SEM: IL-6 (CD3+ BAL cells; day 14 pi): 13 ± 1.6 ×10^3; Total IC cytokine Expressing CD3^+ BAL cells (×10^3) ± SEM: TNFα (CD3+ BAL cells; day 14 pi): 11 ± 1.4 ×10^3
Fkn: CX3C chemokine fractalkine (R&D), ligand of CX3CR1 [reference compound]																					chemotactic index toward G glycoprotein [1, 4]: 1.2; inhibition of leukocyte chemotaxis toward G glycoprotein ([1]; substance in upper chamber): approximately 75%
TCWAICKRIPNK [RT33]	24 ± 5.6 ×10^3	24 ± 6.0 ×10^3	22 ± 5.6 ×10^3	27 ± 6.8 ×10^3	28 ± 7.0 ×10^3	26 ± 6.5^c ×10^3	8.0 ± 1.0 ×10^3	9.0 ± 1.1 ×10^3	11 ± 1.3 ×10^3	12 ± 1.5 ×10^3	9.0 ± 1.2 ×10^3	9.0 ± 1.1 ×10^3	3.6 ± 0.5 ×10^3	2.4 ± 0.3 ×10^3	2.3 ± 0.3 ×10^3	5.2 ± 0.7 ×10^3	5.8 ± 0.8 ×10^3	13 ± 0.8 ×10^3	6.5 ± 2.1 ×10^3	3.0 ± 1.0 ×10^3	Range of Inhibition (%) of Fkn binding ([2]; heparin 5 μg/ml + peptide 1 μM): 70-80%; Total IC cytokine Expressing CD3^+ BAL cells (×10^3) ± SEM: IL-4 (CD3+ BAL cells; day 14 pi): 8.2 ± 2.7 ×10^3; Total IC cytokine Expressing CD3^+ BAL cells (×10^3) ± SEM: IL-5 (CD3+ BAL cells; day 14 pi): 5.3 ± 1.7 ×10^3; Total IC cytokine Expressing CD3^+ BAL cells (×10^3) ± SEM: IL-6 (CD3+ BAL cells; day 14 pi): 4.7 ± 1.5 ×10^3; Total IC cytokine Expressing CD3^+ BAL cells (×10^3) ± SEM: TNFα (CD3+ BAL cells; day 14 pi): 8.7 ± 2.6 ×10^3
NKKPGKKTTTKP [RT34]	43 ± 9.4 ×10^3	43 ± 9.2 ×10^3	28 ± 8.0 ×10^3	47 ± 10 ×10^3	57 ± 12 ×10^3	40 ± 8.5 ×10^3	18 ± 2.6 ×10^3	19 ± 2.8 ×10^3	15 ± 2.2 ×10^3	24 ± 3.5 ×10^3	30 ± 4.4 ×10^3	27 ± 3.9 ×10^3	10 ± 3.5 ×10^3	7.7 ± 2.6 ×10^3	11 ± 3.6 ×10^3	8.7 ± 2.9 ×10^3	8.9 ± 3.0 ×10^3	31 ± 5.0 ×10^3	9.7 ± 1.5 ×10^3	5.4 ± 1.9 ×10^3	Total IC cytokine Expressing CD3^+ BAL cells (×10^3) ± SEM: IL-4 (CD3+ BAL cells; day 14 pi): 8.2 ± 1.3 ×10^3; Total IC cytokine Expressing CD3^+ BAL cells (×10^3) ± SEM: IL-5 (CD3+ BAL cells; day 14 pi): 10 ± 1.7 ×10^3; Total IC cytokine Expressing CD3^+ BAL cells (×10^3) ± SEM: IL-6 (CD3+ BAL cells; day 14 pi): 11 ± 1.7 ×10^3; Total IC cytokine Expressing CD3^+ BAL cells (×10^3) ± SEM: TNFα (CD3+ BAL cells; day 14 pi): 10 ± 1.6 ×10^3
B1																					chemotactic index toward Fkn [1, 4]: 3.2; inhibition of leukocyte chemotaxis toward Fkn ([1]; substance in upper chamber): approximately 37%; Range of Inhibition (%) of Fkn binding ([2]; heparin 5 μg/ml + G glycoprotein 10 nM): 80-85%
